Source: the NIST ThermoML archive (doi:10.1016/j.jct.2012.03.003)

Experiment: xn = mol fraction of the nth substance listed
Details: Liquid, Vibrating tube method

COc1cc2c(cc1O)CC1c3c(cc(O)c(OC)c3-2)CCN1C (stereo not given) [boldine] + CCO
Details	mass density [kg/m3]
313.01 K, 1000 kPa, x1 = 0.0196	817.64
313.01 K, 2000 kPa, x1 = 0.0196	818.47
313.01 K, 3000 kPa, x1 = 0.0196	819.29
313.01 K, 4000 kPa, x1 = 0.0196	820.13
313.01 K, 5000 kPa, x1 = 0.0196	820.98
313.01 K, 6000 kPa, x1 = 0.0196	821.82
313.01 K, 7000 kPa, x1 = 0.0196	822.67
313.01 K, 8000 kPa, x1 = 0.0196	823.53
313.01 K, 9000 kPa, x1 = 0.0196	824.37
313.01 K, 10000 kPa, x1 = 0.0196	825.22
313.01 K, 11000 kPa, x1 = 0.0196	826.07
313.01 K, 12000 kPa, x1 = 0.0196	826.9
313.01 K, 13000 kPa, x1 = 0.0196	827.74
313.01 K, 14000 kPa, x1 = 0.0196	828.55
313.01 K, 15000 kPa, x1 = 0.0196	829.36
313.01 K, 16000 kPa, x1 = 0.0196	830.17
313.01 K, 17000 kPa, x1 = 0.0196	830.96
313.01 K, 18000 kPa, x1 = 0.0196	831.74
313.01 K, 19000 kPa, x1 = 0.0196	832.5
313.01 K, 20000 kPa, x1 = 0.0196	833.23
313.09 K, 1000 kPa, x1 = 0.0012	775.75
313.09 K, 1000 kPa, x1 = 0.0267	829.8
313.09 K, 2000 kPa, x1 = 0.0012	776.61
313.09 K, 2000 kPa, x1 = 0.0267	830.62
313.09 K, 3000 kPa, x1 = 0.0012	777.49
313.09 K, 3000 kPa, x1 = 0.0267	831.43
313.09 K, 4000 kPa, x1 = 0.0012	778.37
313.09 K, 4000 kPa, x1 = 0.0267	832.27
313.09 K, 5000 kPa, x1 = 0.0012	779.27
313.09 K, 5000 kPa, x1 = 0.0267	833.1
313.09 K, 6000 kPa, x1 = 0.0012	780.17
313.09 K, 6000 kPa, x1 = 0.0267	833.94
313.09 K, 7000 kPa, x1 = 0.0012	781.08
313.09 K, 7000 kPa, x1 = 0.0267	834.77
313.09 K, 8000 kPa, x1 = 0.0012	781.99
313.09 K, 8000 kPa, x1 = 0.0267	835.61
313.09 K, 9000 kPa, x1 = 0.0012	782.89
313.09 K, 9000 kPa, x1 = 0.0267	836.46
313.09 K, 10000 kPa, x1 = 0.0012	783.79
313.09 K, 10000 kPa, x1 = 0.0267	837.26
313.09 K, 11000 kPa, x1 = 0.0012	784.7
313.09 K, 11000 kPa, x1 = 0.0267	838.09
313.09 K, 12000 kPa, x1 = 0.0012	785.59
313.09 K, 12000 kPa, x1 = 0.0267	838.91
313.09 K, 13000 kPa, x1 = 0.0012	786.48
313.09 K, 13000 kPa, x1 = 0.0267	839.73
313.09 K, 14000 kPa, x1 = 0.0012	787.35
313.09 K, 14000 kPa, x1 = 0.0267	840.53
313.09 K, 15000 kPa, x1 = 0.0012	788.21
313.09 K, 15000 kPa, x1 = 0.0267	841.33
313.09 K, 16000 kPa, x1 = 0.0012	789.07
313.09 K, 16000 kPa, x1 = 0.0267	842.12
313.09 K, 17000 kPa, x1 = 0.0012	789.89
313.09 K, 17000 kPa, x1 = 0.0267	842.89
313.09 K, 18000 kPa, x1 = 0.0012	790.71
313.09 K, 18000 kPa, x1 = 0.0267	843.66
313.09 K, 19000 kPa, x1 = 0.0012	791.52
313.09 K, 19000 kPa, x1 = 0.0267	844.41
313.09 K, 20000 kPa, x1 = 0.0012	792.31
313.09 K, 20000 kPa, x1 = 0.0267	845.14
313.1 K, 1000 kPa, x1 = 0.0074	788.76
313.1 K, 2000 kPa, x1 = 0.0074	789.61
313.1 K, 3000 kPa, x1 = 0.0074	790.46
313.1 K, 4000 kPa, x1 = 0.0074	791.34
313.1 K, 5000 kPa, x1 = 0.0074	792.21
313.1 K, 6000 kPa, x1 = 0.0074	793.1
313.1 K, 7000 kPa, x1 = 0.0074	793.98
313.1 K, 8000 kPa, x1 = 0.0074	794.88
313.1 K, 9000 kPa, x1 = 0.0074	795.77
313.1 K, 10000 kPa, x1 = 0.0074	796.66
313.1 K, 11000 kPa, x1 = 0.0074	797.53
313.1 K, 12000 kPa, x1 = 0.0074	798.41
313.1 K, 13000 kPa, x1 = 0.0074	799.28
313.1 K, 14000 kPa, x1 = 0.0074	800.14
313.1 K, 15000 kPa, x1 = 0.0074	800.98
313.1 K, 16000 kPa, x1 = 0.0074	801.81
313.1 K, 17000 kPa, x1 = 0.0074	802.63
313.1 K, 18000 kPa, x1 = 0.0074	803.44
313.1 K, 19000 kPa, x1 = 0.0074	804.23
313.1 K, 20000 kPa, x1 = 0.0074	805
313.13 K, 1000 kPa, x1 = 0.0136	801.85
313.13 K, 2000 kPa, x1 = 0.0136	802.69
313.13 K, 3000 kPa, x1 = 0.0136	803.55
313.13 K, 4000 kPa, x1 = 0.0136	804.42
313.13 K, 5000 kPa, x1 = 0.0136	805.28
313.13 K, 6000 kPa, x1 = 0.0136	806.15
313.13 K, 7000 kPa, x1 = 0.0136	807.04
313.13 K, 8000 kPa, x1 = 0.0136	807.92
313.13 K, 9000 kPa, x1 = 0.0136	808.79
313.13 K, 10000 kPa, x1 = 0.0136	809.66
313.13 K, 11000 kPa, x1 = 0.0136	810.53
313.13 K, 12000 kPa, x1 = 0.0136	811.4
313.13 K, 13000 kPa, x1 = 0.0136	812.25
313.13 K, 14000 kPa, x1 = 0.0136	813.1
313.13 K, 15000 kPa, x1 = 0.0136	813.94
313.13 K, 16000 kPa, x1 = 0.0136	814.77
313.13 K, 17000 kPa, x1 = 0.0136	815.58
313.13 K, 18000 kPa, x1 = 0.0136	816.37
313.13 K, 19000 kPa, x1 = 0.0136	817.16
313.13 K, 20000 kPa, x1 = 0.0136	817.92
323.03 K, 1000 kPa, x1 = 0.0012	766.88
323.03 K, 2000 kPa, x1 = 0.0012	767.82
323.03 K, 3000 kPa, x1 = 0.0012	768.76
323.03 K, 4000 kPa, x1 = 0.0012	769.71
323.03 K, 5000 kPa, x1 = 0.0012	770.66
323.03 K, 6000 kPa, x1 = 0.0012	771.62
323.03 K, 7000 kPa, x1 = 0.0012	772.58
323.03 K, 8000 kPa, x1 = 0.0012	773.53
323.03 K, 9000 kPa, x1 = 0.0012	774.49
323.03 K, 10000 kPa, x1 = 0.0012	775.44
323.03 K, 11000 kPa, x1 = 0.0012	776.38
323.03 K, 12000 kPa, x1 = 0.0012	777.32
323.03 K, 13000 kPa, x1 = 0.0012	778.24
323.03 K, 14000 kPa, x1 = 0.0012	779.15
323.03 K, 15000 kPa, x1 = 0.0012	780.06
323.03 K, 16000 kPa, x1 = 0.0012	780.94
323.03 K, 17000 kPa, x1 = 0.0012	781.82
323.03 K, 18000 kPa, x1 = 0.0012	782.68
323.03 K, 19000 kPa, x1 = 0.0012	783.53
323.03 K, 20000 kPa, x1 = 0.0012	784.35
323.04 K, 1000 kPa, x1 = 0.0074	779.9
323.04 K, 1000 kPa, x1 = 0.0196	808.75
323.04 K, 2000 kPa, x1 = 0.0074	780.82
323.04 K, 2000 kPa, x1 = 0.0196	809.64
323.04 K, 3000 kPa, x1 = 0.0074	781.75
323.04 K, 3000 kPa, x1 = 0.0196	810.53
323.04 K, 4000 kPa, x1 = 0.0074	782.68
323.04 K, 4000 kPa, x1 = 0.0196	811.42
323.04 K, 5000 kPa, x1 = 0.0074	783.61
323.04 K, 5000 kPa, x1 = 0.0196	812.32
323.04 K, 6000 kPa, x1 = 0.0074	784.55
323.04 K, 6000 kPa, x1 = 0.0196	813.21
323.04 K, 7000 kPa, x1 = 0.0074	785.48
323.04 K, 7000 kPa, x1 = 0.0196	814.12
323.04 K, 8000 kPa, x1 = 0.0074	786.42
323.04 K, 8000 kPa, x1 = 0.0196	815.02
323.04 K, 9000 kPa, x1 = 0.0074	787.36
323.04 K, 9000 kPa, x1 = 0.0196	815.91
323.04 K, 10000 kPa, x1 = 0.0074	788.29
323.04 K, 10000 kPa, x1 = 0.0196	816.8
323.04 K, 11000 kPa, x1 = 0.0074	789.22
323.04 K, 11000 kPa, x1 = 0.0196	817.69
323.04 K, 12000 kPa, x1 = 0.0074	790.13
323.04 K, 12000 kPa, x1 = 0.0196	818.56
323.04 K, 13000 kPa, x1 = 0.0074	791.03
323.04 K, 13000 kPa, x1 = 0.0196	819.44
323.04 K, 14000 kPa, x1 = 0.0074	791.94
323.04 K, 14000 kPa, x1 = 0.0196	820.29
323.04 K, 15000 kPa, x1 = 0.0074	792.82
323.04 K, 15000 kPa, x1 = 0.0196	821.15
